In one data set the test system is MDA-MB-231 (FGFR−). Put plainly: MTT cytotoxicity assay. The note with it: 48 h. The protocol: (§1) By way of example, the in vitro cytotoxicity of the conjugate RuPC1, complex 4 and peptide P2 was determined in four human breast cancer cell lines with different levels of expression of the receptor FGFR, namely MDA-MB-231 (FGFR−), MCF-7 (FGFR−), SK-BR-3 (FGFR+), and MDA-MB-134-VI (FGFR+). The cytotoxicity of RuPC1 was also determined in the stated cell lines at controlled pH 6.8 and 7.4. The cytotoxicity of the complexes 5, 8, 9, and the reference complex (2,2′-bipyridyl)(triphenylphosphane)(f-cyclopentadienyl)ruthenium(II) trifluoromethanesulfonate, [RuCp(PPh3)(bipy)][CF3SO3] (TM34) was only determined in the cell line MDA-MB-231. All the cell lines were from the American Type Culture Collection (ATCC) and were cultured in Dulbecco's Modified Eagle Medium+Glutamax-I (Gibco) supplemented with 10% fetal bovine serum (FBS) and 1% antibiotics, excepting the MDA-MB-134-VI for which it was used the double amount of FBS. The cell cultures were kept in an incubator Heraeus at 37° C. under humidified atmosphere at 5% CO2. The cell viability was evaluated resorting to the MTT ([3-(4,5-dimethylthiazol-2-yl)-2,5-diphenyltetrazolium bromide]) colorimetric assay, which is based on the reduction of the tetrazolium salt to purple formazan by mitochondrial dehydrogenases in metabolically active cells. For the assays, the cells were seeded in 96-well plates (2×10^4 to 3×10^4 cells/200 μL) and allowed to adhere overnight. The compounds were first dissolved in dimethyl sulfoxide to obtain 10 mM stock solutions, further used to prepare the working solutions, at 0.1 to 100 μM, by dilution in the cell culture medium. Alternatively, for the assays at controlled pH 6.8 and 7.4, RuPC1 was first dissolved in a solution of 15% dimethyl sulfoxide/85% phosphate buffer (10 mM in water) to obtain 1.5 mM stock solutions further incubated for 48 hours at both pH values prior to be used to prepare the working solutions, at 0.1 to 50 μM, by dilution in the cell culture medium. In both cases, after continuous exposure of the cells to the compounds for 48 h at 37° C., the medium was removed and the cells were incubated with 200 μL of MTT solution (0.5 mg/mL) for 3 h. Then, the solution was discarded and the purple formazan formed by the viable cells was dissolved in 200 μL of dimethyl sulfoxide. The cell viability (%) was determined relative to the control (cells incubated without compounds) by measuring the absorbance at 570 nm on a PowerWave Xs Bio-Tek Instruments plate spectrophotometer. The respective values of the half maximal inhibitory concentration (IC50) were calculated with the software GraphPad Prism. All the compounds were tested in at least two independent experiments, each comprising six replicates per concentration.
For orientation: Tetrazolium assays rely on reduction of a dye to a coloured formazan, in cell work by metabolically active cells.

For another data set, the system named is MCF-7 (FGFR−). Put plainly: MTT cytotoxicity assay. As to conditions: human, 48 h. The protocol: as §1
For the next data set, the system named is MDA-MB-134-VI (FGFR+). Kind of data set: MTT cytotoxicity assay. As to conditions: human, 48 h. The protocol:
as §1

In the next data set the test system is SK-BR-3 (FGFR+). Put plainly: MTT cytotoxicity assay. The note with it: human, 48 h. As for the experimental part: as §1
Data set [1] relates to four human breast cancer cell lines with different levels of expression of the receptor FGFR. Put plainly: MTT cytotoxicity assay, comparisons across the cell line panel. The data set is classed as cell-based. The note with it: adopted experimental conditions (48 h). As for the experimental part:
By way of example, the in vitro cytotoxicity of the conjugate RuPC1, complex 4 and peptide P2 was determined in four human breast cancer cell lines with different levels of expression of the receptor FGFR, namely MDA-MB-231 (FGFR−), MCF-7 (FGFR−), SK-BR-3 (FGFR+), and MDA-MB-134-VI (FGFR+). The cytotoxicity of RuPC1 was also determined in the stated cell lines at controlled pH 6.8 and 7.4. The cytotoxicity of the complexes 5, 8, 9, and the reference complex (2,2′-bipyridyl)(triphenylphosphane)(f-cyclopentadienyl)ruthenium(II) trifluoromethanesulfonate, [RuCp(PPh3)(bipy)][CF3SO3] (TM34) was only determined in the cell line MDA-MB-231. […] The cell viability was evaluated resorting to the MTT ([3-(4,5-dimethylthiazol-2-yl)-2,5-diphenyltetrazolium bromide]) colorimetric assay, which is based on the reduction of the tetrazolium salt to purple formazan by mitochondrial dehydrogenases in metabolically active cells. […] The cell viability (%) was determined relative to the control (cells incubated without compounds) by measuring the absorbance at 570 nm on a PowerWave Xs Bio-Tek Instruments plate spectrophotometer. The respective values of the half maximal inhibitory concentration (IC50) were calculated with the software GraphPad Prism. […]

Read-outs that look alike come from different tables or passages of the source. Where a SMILES comes first, the peptide text is derived from it. [ ]: non-standard residue; d: D form. The star is where a group is joined. Levulinoyl = CC(=O)CCC(=O)* Bounds are passed on as bounds.

Turning to `O=S(=O)([O-])C(F)(F)F.[Ru+2].c1cc[cH-]c1.c1ccc(-c2ccccn2)nc1.c1ccc(P(c2ccccc2)c2ccccc2)cc1` [TM34, (2,2′-bipyridyl)(triphenylphosphane)(f-cyclopentadienyl)ruthenium(II) trifluoromethanesulfonate, reference compound], the IC50 – broadly, the concentration needed to halve the response being measured – in the data set with MDA-MB-231 (FGFR−) (read-out: Cytotoxic activity expressed as IC50, Table 5, MDA-MB-231, 37° C.) was 0.52 µM.

Take `CC(=O)CCC(=O)N[C@@H](C(=O)N[C@@H](CO)C(=O)N1CCC[C@H]1C(=O)N1CCC[C@@H]1C(=O)N[C@@H](CC(C)C)C(=O)N[C@H](C(=O)N[C@@H](CC(C)C)C(=O)NCC(=O)N[C@@H](CCC(N)=O)C(=O)N[C@@H](CC(C)C)C(=O)N[C@@H](CC(C)C)C(=O)N[C@@H](CO)C(N)=O)[C@@H](C)O)C(C)C` [peptide P2, 4-oxopetanoyl-NH-^1valine-^2serine-^3proline-^4proline-^5leucine-^6threonine-^7leucine-^8glycine-^9glutamine-^10leucine-^11leucine-^12serine-CONH2] (Levulinoyl-[dV]SP[dP]LTLGQLLS-NH2): the half-maximal inhibitory concentration (IC50) with MCF-7 (FGFR−), in the data set with MDA-MB-134-VI (FGFR+), in the data set with MDA-MB-231 (FGFR−) (human) and in the data set with SK-BR-3 (FGFR+) was > 100 µM each time. Further, the “Cytotoxic activity in words” value in data set [1] was “did not show significant cytotoxic activity”.
